Experimental data reported in patent US20260209272A1 (priority 2022, published 2026).
Ends that are not written are not given here.

Experiments:
[1] = system: Phytophthora infestans zoospores
Phytophthora infestans [2] = type: in vivo
Phytophthora infestans [3] = type: in vivo; remark: listed apart in the source
detached potato leaves = detached potato leaves treated with peptide plus water, no inoculum; 9 = clean leaves

Question: Which results are given for RITAQIRL [Peptide V1]?
Answer: activity in the presence of other agrochemical active ingredients ([1]; FIG. 9 legend): retains its activity; zoospore germination, peptide expressed in E. coli ([1]; Peptide V1 expressed in E. coli): completely inhibited zoospore germination; additive or synergistic effects with chemical fungicides ([1]; Peptide V1 with either Mancozeb or Fungonil (Chlorothalonil), germination assays): did not indicate any evidence of additive or synergistic effects; protection among concentrations tested with and without LI-700 (Phytophthora infestans [2]; large plants, 400 μM peptide): best protection; severity of symptoms compared with non-treated control group, combination (Phytophthora infestans [2]; plant assays, low dose Peptide V1 (25 μM) combined with low dose of Mancozeb): approximately the same; severity of symptoms compared with non-treated control group (Phytophthora infestans [2]; plant assays, low dose alone (Peptide V1 25 μM; low dose of Mancozeb)): approximately the same; disease reduction (Phytophthora infestans [2]; whole plant assays, 400 μM peptide concentration): approximately 60%; protection against infection (in words), experiment repeated one week later (Phytophthora infestans [3]; 400 uM, detached potato leaves): almost as good at reducing infection; average score (1-9 scale of late blight infection) (Phytophthora infestans [3]; 6 days after Phytophthora infection, 50 sporangia/ul final, 4 drops of 10 ul per leaflet, 20 C, peptides 400 uM final, Mancozeb product diluted 1:1000, 9 = no symptoms, water positive control 6.56): 8.37; late blight lesions, peptide expressed in E. coli (Phytophthora infestans [3]; detached leaf assay, Peptide V1 expressed in E. coli): it allowed the development of minor late blight lesions, it is noteworthy that these lesions did not progress; protection (in words), further repeat, first time (Phytophthora infestans [3]; detached potato leaves): some protection; protection (in words), further repeat, second time (Phytophthora infestans [3]; detached potato leaves): excellent protection; overall conclusion on efficacy (Phytophthora infestans [3]; over all detached leaf experiments): consistently works well

Question: Which “score (1-9 scale), negative control without Phytophthora infestans inoculation” value (detached potato leaves) does the source give for RNTAQIP [Peptide V2, RNTAQIP] here?
Answer: 8.67
